Laboratory results as given in patent US7902373B2 (Pfizer Inc, priority 2006, dated 2011).
Where a name gives a salt, the structure may show the parent alone.

Target: T1, human recombinant H-PGDS (Homo sapiens, UniProt O60760)
Experiment: Fluorescence intensity h-PGDS TBA enzyme assay
Type: biochemical
Conditions: Examples up to 622 (and 3a, 3b)

T1 sequence (O60760 whole entry): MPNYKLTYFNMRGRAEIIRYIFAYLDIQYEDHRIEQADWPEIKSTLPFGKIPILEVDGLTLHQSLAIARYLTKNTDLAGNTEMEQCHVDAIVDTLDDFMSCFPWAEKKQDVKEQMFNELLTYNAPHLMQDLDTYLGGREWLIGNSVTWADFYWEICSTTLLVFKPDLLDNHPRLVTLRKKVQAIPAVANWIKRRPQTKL

| IC50 | Compound |
| --- | --- |
| 1.06 nM | O=C(NC1CCN(c2ncc3c(n2)CCC3)C1)c1ccc(-c2cccc(F)c2)nc1 (stereo not drawn) [Example 595, N-[1-(6,7-Dihydro-5H-cyclopenta[d]pyrimidin-2-yl)pyrrolidin-3-yl]-6-(3-fluorophenyl)nicotinamide] |
| 1.93 nM | O=C(NC1CCN(CC2CC2)CC1)c1ccc(-c2cccc(F)c2)nc1 [Example 596, N-[1-(Cyclopropylmethyl)piperidin-4-yl]-6-(3-fluorophenyl)nicotinamide] |
| 0.85 nM | CN1CCc2nc(N3CCC(NC(=O)c4ccc(-c5cccc(F)c5)nc4)C3)ncc2C1 (stereo not drawn) [Example 597, 6-(3-Fluorophenyl)-N-[1-(6-methyl-5,6,7,8-tetrahydropyrido[4.3-d]pyrimidin-2-yl)pyrrolidin-3-yl]nicotinamide] |
| 3.79 nM | CC(C)(C)OC(=O)N1CCC(NC(=O)c2ccc(-c3cccc(F)c3)nc2)CC1 [Example 598, tert-Butyl 4-({[6-(3-fluorophenyl)pyridin-3-yl]carbonyl}amino)piperidine-1-carboxylate] |
| 2.92 nM | CC(C)(C)OC(=O)N1CC(NC(=O)c2ccc(-c3cccc(F)c3)nc2)C1 [Example 599] |
| 6.76 nM | CC(C)(C)C(=O)N1CC(NC(=O)c2ccc(-c3cccc(F)c3)nc2)C1 [Example 601, N-[1-(2,2-Dimethylpropanoyl)azetidin-3-yl]-6-(3-fluorophenyl)nicotinamide] |
| 2.98 nM | Cc1cc(C)c(C#N)c(N2CC(NC(=O)c3ccc(-c4cccc(F)c4)nc3)C2)n1 [Example 602] |
| 2.29 nM | CCc1cn2nc(N3CC(NC(=O)c4ccc(-c5cccc(F)c5)nc4)C3)ccc2n1 [Example 603, N-[1-(2-Ethylimidazo[1,2-b]pyridazin-6-yl)azetidin-3-yl]-6-(3-fluorophenyl)nicotinamide] |
| 11.5 nM | O=C(NC1CN(c2ncccc2C(F)(F)F)C1)c1ccc(-c2cccc(F)c2)nc1 [Example 604, 6-(3-Fluorophenyl)-N-{1-[3-(trifluoromethyl)pyridin-2-yl]azetidin-3-yl}nicotinamide] |
| 2.9 nM | O=C(NC1CN(c2cnc3ccccc3n2)C1)c1ccc(-c2cccc(F)c2)nc1 [Example 605, 6-(3-Fluorophenyl)-N-(1-quinoxalin-2-ylazetidin-3-yl)nicotinamide] |
| 10.8 nM | O=C(NC1CN(c2nc3ccccc3o2)C1)c1ccc(-c2cccc(F)c2)nc1 [Example 606, N-[1-(1,3-Benzoxazol-2-yl)azetidin-3-yl]-6-(3-fluorophenyl)nicotinamide] |
| 4.44 nM | Cc1ccc(C#N)c(N2CC(NC(=O)c3ccc(-c4cccc(F)c4)nc3)C2)n1 [Example 607, N-[1-(3-Cyano-6-methylpyridin-2-yl)azetidin-3-yl]-6-(3-fluorophenyl)nicotinamide] |
| 3.66 nM | O=C(NC1CCN(CC(F)(F)F)CC1)c1cnc(-c2cccc(F)c2)c(Cl)c1 [Example 620, 5-Chloro-6-(3-fluorophenyl)-N-[1-(2,2,2-trifluoroethyl)piperidin-4-yl]nicotinamide] |
| 1.59 nM | O=C(NC1CCN(c2cccnn2)CC1)c1cnc(-c2cccc(F)c2)c(Cl)c1 [Example 621, 5-Chloro-6-(3-fluorophenyl)-N-(1-pyridazin-3-ylpiperidin-4-yl)nicotinamide] |
| 3.48 nM | CC(C)(C)C(=O)N1CCC(NC(=O)c2cnc(-c3cccc(F)c3)c(Cl)c2)CC1 [Example 622, 5-Chloro-6-(3-fluorophenyl)-N-(1-pivaloylpiperidin-4-yl)nicotinamide] |
| 1000 nM | N-(1-{[4-(3,4)-1,3-Thiazol-2-yl]methyl}piperidin-4-yl)- 6-(3-fluorophenyl)nicotinamide [Example 413] |
| 0.375 nM | N-[1-(2-Chloro-2-fluoro-5-methoxybenzyl)piperidin-4- yl]-6-(3-fluorophenyl)nicotinamide [Example 468] |
| 0.655 nM | N-{1-[1-(2-Ethoxyphenyl)-1H-tetrazol-5- yl]piperidin-4-yl}-6-(3-fluorophenyl)nicotinamide [Example 105] |

Target: T1, human recombinant H-PGDS
Experiment: Slightly modified h-PGDS TBA enzyme assay (Examples 623 onwards)
Type: biochemical
Conditions: not given
Experimental: Prostaglandin D Synthase (PGDS) converts the substrate prostaglandin H2 (PGH2) to prostaglandin D2.
Examples 623 onwards were tested in a slightly modified assay: The enzyme assay (30 μls during biological process) contained 100 mM Trizma pH 8.0, 100 μM MgCl2, 0.1 mg/ml IgG Rabbit serum, 5.0 μM PGH2 (Cayman; ethanol solution, #17020), 2.5 mM L-Glutathione (Sigma; reduced form #G4251), 1:40,000 human recombinant H-PGDS (from 1 mg/ml), 0.5% DMSO and inhibitor (varying concentration). 3 μls of diluted inhibitor (dissolved in DMSO) was plated into a 384-well assay plate followed by a 24 μl addition of an enzyme solution containing h-PGDS, Trizma, MgCl2, IgG and L-Glutathione. After pre-incubation of inhibitor and enzyme solution for 10 minutes at room temperature, the reaction was initiated with a 3 μl addition of substrate solution in 10 mM HCl. The reaction was terminated after 40 second by the addition of 3 μl stop buffer containing FeCl2 and citric acid. After addition of 45 μl of TBA plates were heated for one hour in a 70° C. oven. Plates were cooled at room temperature overnight and read on a plate reader the next day with excitation @ 530 nm and emission @ 560 nm. IC50's of inhibitors were calculated with a 4-parameter fit using 11 inhibitor concentrations in duplicate with 1/2 log serial dilutions. […] The highest inhibitor concentration tested was typically 10 μM.

| IC50 | Compound |
| --- | --- |
| 6.75 nM | CC(C)(C)C(=O)N1CCC(NC(=O)c2ccc(-c3ccccc3O)nc2)CC1 [Example 627] |
| 6.22 nM | CCOC(=O)N1CCC(NC(=O)c2ccc(-c3ccccc3O)nc2)CC1 [Example 628] |
| 22.2 nM | O=C(NC1CCN(CC2CC2)CC1)c1ccc(-c2ccccc2O)nc1 [Example 629] |
| 32.8 nM | COCCN1CCC(NC(=O)c2ccc(-c3ccccc3O)nc2)CC1 [Example 630] |
| 82.4 nM | CCCN1CCC(NC(=O)c2ccc(-c3ccccc3O)nc2)CC1 [Example 631] |
| 5.57 nM | O=C(NC1CCN(c2cccnn2)CC1)c1ccc(-c2ccccc2O)nc1 [Example 632] |
| 16.6 nM | CC(C)S(=O)(=O)N1CCC(NC(=O)c2ccc(-c3ccccc3O)nc2)CC1 [Example 633] |
| 6.13 nM | Cn1nnnc1N1CCC(NC(=O)c2ccc(-c3ccccc3O)nc2)CC1 [Example 634] |
| 10.9 nM | O=C(NC1CCN(CC(F)(F)F)CC1)c1ccc(-c2cc(F)ccc2O)nc1 [Example 635] |
| 17.2 nM | CC(C)(C)C(=O)N1CCC(NC(=O)c2ccc(-c3cc(F)ccc3O)nc2)CC1 [Example 636] |
| 62.4 nM | COCCN1CCC(NC(=O)c2ccc(-c3cc(F)ccc3O)nc2)CC1 [Example 637] |
| 83.3 nM | CCCN1CCC(NC(=O)c2ccc(-c3cc(F)ccc3O)nc2)CC1 [Example 638] |
| 10000 nM | O=C(NC1CCN(c2cccnn2)CC1)c1ccc(-c2cc(F)ccc2O)nc1 [Example 639] |
| 129 nM | CCN1CCC(NC(=O)c2ccc(-c3cc(F)ccc3O)nc2)CC1 [Example 640] |
| 13.9 nM | CC(C)S(=O)(=O)N1CCC(NC(=O)c2ccc(-c3cc(F)ccc3O)nc2)CC1 [Example 642] |
| 7.77 nM | Cn1nnnc1N1CCC(NC(=O)c2ccc(-c3cc(F)ccc3O)nc2)CC1 [Example 643] |
| 0.568 nM | O=C1CC(NC(=O)c2ccc(-c3cccc(F)c3)nc2)c2ccccc2N1 (stereo not drawn) [Example 650, 6-(3-Fluorophenyl)-N-(2-oxo-1,2,3,4-tetrahydroquinolin-4-yl)nicotinamide] |
| 2.01 nM | O=C(N[C@H]1[C@@H]2CN(CC(F)(F)F)C[C@@H]21)c1ccc(-c2cccc(F)c2)nc1 [Example 651, 6-(3-Fluorophenyl)-N-((1R,5S,6S)-3-(2,2,2-trifluoroethyl)-3-aza-bicyclo[3.1.0]hexan-6-yl)nicotinamide] |
| 33.8 nM | CC(=O)N1C[C@@H]2[C@H](C1)[C@H]2NC(=O)c1ccc(-c2cccc(F)c2)nc1 [Example 654, N-[(1R,5S,6s)-3-acetyl-3-azabicyclo[3.1.0]hex-6-yl]-6-(3-fluorophenyl)nicotinamide] |
| 66.8 nM | CCCN1C[C@@H]2[C@H](C1)[C@H]2NC(=O)c1ccc(-c2cccc(F)c2)nc1 [Example 655] |

More lines, now with the values behind:

| Compound | IC50 |
| --- | --- |
| N#Cc1cccc(-c2ccc(C(=O)NC3CCN(CC(F)(F)F)CC3)cn2)c1 [Example 623, 6-(3-Cyanophenyl)-N-[1-(2,2,2-trifluoroethyl)piperidin-4-yl]nicotinamide] | 104 nM |
| N#Cc1ccccc1-c1ccc(C(=O)NC2CCN(CC(F)(F)F)CC2)cn1 [Example 624, 6-(2-Cyanophenyl)-N-[1-(2,2,2-trifluoroethyl)piperidin-4-yl]nicotinamide] | 36 nM |
| O=C(NC1CCN(c2ncccn2)CC1)c1ccc(-c2ccccc2O)nc1 [Example 625, 6-(2-Hydroxyphenyl)-N-(1-pyrimidin-2-ylpiperidin-4-yl)nicotinamide] | 4.06 nM |
| O=C(N[C@H]1[C@@H]2CNC[C@@H]21)c1ccc(-c2cccc(F)c2)nc1 [Example 653, N-[(1R,5S,6s)-3-azabicyclo[3.1.0]hex-6-yl]-6-(3-fluorophenyl)nicotinamide di-hydrochloride] | 177 nM |
